{"source": "patent US7906300B2", "about": "“Methods for diagnosing an attention-deficit/Hyperactivity disorder” (PsychNostics, LLC, priority 2005, dated 2011)", "assay_type_in_all_cases": "cell-based, human", "key": {"[1]": {"test_system": "lymphoblasts", "experiment": "Rate of drop in membrane potential (repolarization rate) of lymphoblasts, with/without compound", "conditions": "30 min, K+-free and K+-containing buffer", "protocol": "(§1) The membrane potentials of the bipolar I cells shown in Table 4 above (as well as in all other experiments, except where indicated) were measured using the following protocol. The cells cultured in the media described above were centrifuged at 210 g for 5 minutes at room temperature, then suspended in 3 ml of K^+-containing stock buffer (5 mM KCl, 4 mM NaHCO3, 5 mM HEPES, 134 mM NaCl, 2.3 mM CaCl2, and 5 mM glucose). The cells were counted and the desired number of cells were again suspended in the K^+-containing buffer. The membrane potentials were measured using 3,3′-dihexyloxacarbocyanine iodide DiOC6(3), a cell-permeant, voltage sensitive, green-fluorescent dye (Molecular Probes Inc. Eugene, Oreg. USA). […]\n(§2) A fluorescence spectrometer (F2500 Hitachi, Japan) was used for the measurement of the membrane potential by measuring the fluorescence intensity of DiOC6(3), which is directly proportional to the membrane potential. The intensity of fluorescence was measured at an excitation wavelength of 488 nm and an output wavelength of 540 nm. […]\nThe rate of drop in membrane potential after incubation with the protein kinase C (PKC) activator, phorbol 12-myristate 13-acetate (PMA), was compared in affected cells to that of unaffected cells. The membrane potential of these cells was determined by measuring the fluorescence intensity as described above. […]"}, "[2]": {"test_system": "lymphoblasts", "experiment": "Membrane potential of lymphoblasts by DiOC6(3) fluorescence intensity ratio, with/without compound", "description": "Three groups of immortalized lymphoblast samples were obtained from the Human Genetic Mutant Cell Repository (Coriell Institute for Medical Research, Camden N.J.). The samples are shown in Table 4 below and included six from affected (bipolar I disorder) patients (A1 through A6), six from their siblings (S1 through S6), and six from unrelated normal control subjects matched by age and sex (N1 through N6).\nas §1, §2\nMembrane potential was expressed according to fluorescence intensity using the following equation: I=CV, wherein I is the fluorescence intensity of a lipophilic fluorescent dye DiOC6(3) being only one example of such a dye); V is the voltage or membrane potential; and C is a constant that can vary depending on a number of factors such as, but not limited to, temperature, lamp intensity, number of cells, concentration of the fluorescent dye, incubation time, and lipid composition of cells used. […]\nMembrane potentials were also measured in K^+-free buffer to enable comparison with membrane potentials in K^+-containing buffer. […]"}, "[3]": {"test_system": "whole blood cells", "experiment": "Membrane potential ratio of whole blood cells, clinical trials (DiOC6(3) fluorescence)", "conditions": "for ratio of intensity in K+-free buffer with 30 μM ethacrynate to intensity in K+-containing buffer without ethacrynate, Median: plate reader", "protocol": "Because the volume of blood required to collect enough lymphocytes was beyond that permitted by the current protocol, the membrane potential of whole blood cells was determined. The volume of whole blood required was approximately 1 ml. The blood samples were kept on ice until they were stored at 4° C. All of the samples were tested within 48 hours.\nWhole blood samples drawn from patients and controls were suspended in K^+-containing buffer without ethacrynate and in K^+-free buffer with 30 μM ethacrynate or with 100 mM sorbitol. The fluorescent dye DiOC6(3) was added to both suspensions and incubated for 30 minutes. The cell suspensions loaded with the dye were centrifuged, drained and resuspended in the respective buffers. The fluorescence intensity was measured for 10 seconds and the ratio of the intensity in K^+-free buffer to the intensity in K^+-containing buffer was calculated.\nWhole blood samples drawn from patients and controls were suspended both in K^+-containing buffer and in K^+-free buffer with 30 μM ethacrynate or with 100 μM sorbitol. The fluorescent dye DiOC6(3) was added to both suspensions and incubated for 30 minutes. The cell suspensions loaded with the dye were centrifuged, drained and resuspended in the respective buffers. The fluorescence intensity was measured for 10 seconds and the ratio of the intensity in K^+-free buffer to the intensity in K^+-containing buffer was calculated.\nAn individual patient's cell sample was tested as described herein and six to twelve ratios were calculated. These values were treated as a group and compared with a normal control group (negative control) and a bipolar group (positive control).\n(§3) Cells from control, bipolar I and bipolar II individuals were compared amongst each other as described herein. Whole blood samples drawn from patients and controls and aliquots were suspended either in K^+-containing buffer without ethacrynate, or in K^+-free buffer with 30 μM ethacrynate. The fluorescent dye DiOC6(3) was added to the suspensions and incubated for 30 minutes. The cell suspensions loaded with the dye were centrifuged, drained and resuspended in the respective buffers. The fluorescence intensity was measured for 10 seconds and the ratio of the intensity in K^+-free buffer to the intensity in K^+-containing buffer was calculated. Plate Reader (PerkinsElmer Victor V) was used for intensity measurements).\nas §3, with “ADHD” for “bipolar II”"}, "[4]": {"test_system": "whole blood cells", "experiment": "Membrane potential ratio of whole blood cells, clinical trials (DiOC6(3) fluorescence)", "conditions": "open trial; bipolar patients; 100 mM sorbitol; FIG. 13"}}}
{"smiles": "CCCCCCCCCCCCCC(=O)O[C@@H]1[C@@H](C)[C@@]2(O)[C@@H](C=C(CO)C[C@]3(O)C(=O)C(C)=C[C@@H]23)[C@@H]2C(C)(C)[C@]12OC(C)=O", "note": "[PMA, phorbol 12-myristate 13-acetate]", "values": [{"measurement": "relative ratio of repolarization rates in affected cells compared with unaffected cells", "setting": "[1]; 2 μM PMA, P=0.046, FIG. 10", "result": "significantly lower"}]}
{"smiles": "C=C(CC)C(=O)c1ccc(OCC(=O)O)c(Cl)c1Cl", "note": "[ethacrynate]", "values": [{"measurement": "relative rate of repolarization in affected cells compared with unaffected cells", "setting": "[1]; 30 μM ethacrynate, P=0.041, FIG. 7", "result": "significantly higher"}, {"measurement": "relative intensity ratio of affected cells compared with unaffected cells", "setting": "[2]; 30 μM ethacrynate, K+-free vs K+-containing buffer, t-test P=0.009, FIG. 5", "result": "significantly higher"}, {"measurement": "intensity ratio (membrane potential with ethacrynate/without ethacrynate) of affected cells compared with unaffected cells", "setting": "[2]; K+-free buffer, 30 μM ethacrynate, t-test P=0.032, FIG. 6", "result": "significantly higher"}, {"measurement": "ratio of fluorescence intensity in K+-free buffer containing 30 μM ethacrynate to that in K+-containing buffer without ethacrynate, Mean", "setting": "[3]; blind clinical trial, Controls", "result": 0.850}, {"measurement": "ratio of fluorescence intensity in K+-free buffer containing 30 μM ethacrynate to that in K+-containing buffer without ethacrynate, Median", "setting": "[3]; blind clinical trial, Controls", "result": 0.850}, {"measurement": "ratio of fluorescence intensity in K+-free buffer containing 30 μM ethacrynate to that in K+-containing buffer without ethacrynate, Mean", "setting": "[3]; blind clinical trial, Schizophr.", "result": 0.870}, {"measurement": "ratio of fluorescence intensity in K+-free buffer containing 30 μM ethacrynate to that in K+-containing buffer without ethacrynate, Mean", "setting": "[3]; individual Patient A (diagnosed bipolar)", "result": 0.766}, {"measurement": "ratio of fluorescence intensity in K+-free buffer containing 30 μM ethacrynate to that in K+-containing buffer without ethacrynate, Mean", "setting": "[3]; open clinical trial, Bipolars", "result": 0.780}, {"measurement": "ratio of intensity in K+-free buffer with 30 μM ethacrynate to intensity in K+-containing buffer without ethacrynate, Median", "setting": "[3]; ADHD group", "result": 0.808}, {"measurement": "ratio of intensity in K+-free buffer with 30 μM ethacrynate to intensity in K+-containing buffer without ethacrynate, Median", "setting": "[3]; BPD I group", "result": 0.606}, {"measurement": "ratio of intensity in K+-free buffer with 30 μM ethacrynate to intensity in K+-containing buffer without ethacrynate, Median", "setting": "[3]; BPD II group", "result": 0.648}, {"measurement": "ratio of intensity in K+-free buffer with 30 μM ethacrynate to intensity in K+-containing buffer without ethacrynate, Median", "setting": "[3]; Negative (control) group", "result": 0.676}]}
{"smiles": "CC[C@@]1([C@@H]2O[C@@H]([C@H]3O[C@@](O)(CO)[C@H](C)C[C@@H]3C)C[C@@H]2C)CC[C@H]([C@]2(C)CC[C@]3(C[C@H](O)[C@@H](C)[C@@H]([C@@H](C)[C@@H](OC)[C@H](C)C(=O)O)O3)O2)O1", "note": "[monensin]", "values": [{"measurement": "intensity ratio (membrane potential with monensin/without monensin) of affected cells compared with unaffected cells", "setting": "[2]; K+-free buffer, 10 μM monensin, 30 min, t-test P=0.009, FIG. 8", "result": "significantly lower"}]}
{"smiles": "OC[C@@H](O)[C@@H](O)[C@H](O)[C@@H](O)CO", "note": "[sorbitol]", "values": [{"measurement": "fluorescence intensity ratio of bipolar cells with sorbitol in K+-free buffer, compared with ethacrynate", "setting": "[4]", "result": "comparable to the results with ethacrynate"}]}
